Data as given in paper PMC10850913 (Heliyon, 2024).
Where two headings read alike, the source gives them in different places.

Columns and labels:
[1] = system: HCT116 cells; experiment: Cell cycle analysis (PI, flow cytometry); assay type: cell-based; conditions: HCT116, IC50 concentration, 24 h
Protocol: Following the incubation period, cells were harvested using trypsin and collected in a 1.5 ml tube. After a single wash with 500 μl of chilled PBS, approximately 1 x 10^6 cells were suspended in 100 μl of PBS. The cell suspension was gently vortexed to achieve a mono-dispersed cell suspension with minimal aggregation. Subsequently, the cells were fixed by transferring this suspension with a pipette into centrifuge tubes containing 900 μl of 70 % ethanol, placed on ice, and then incubated for a minimum of 2 h at 4 °C. The fixed cells could be stored in 70 % ethanol at 4 °C for several weeks.
After fixation, the cells were centrifuged, and the pellet was suspended in 500 μl of Propidium Iodide (PI) staining solution (0.1 % (v/v) Triton X-100, 10 μg/ml PI, and 100 μg/ml DNase-free RNaseA in PBS). This suspension was kept in the dark at room temperature for 30 min or at 37 °C for 10 min. The samples were then acquired on a flow cytometer.

[2] = In vitro drug release (dialysis tube) and kinetic models; assay type: physicochemical; conditions: PBS pH 5.5, 37 °C
Protocol: We utilized a dialysis tube diffusion system to characterize the in vitro release of drugs from the formulations. This system provides a controlled environment to study the rate and extent of drug release from the formulations, reflecting their potential drug delivery behaviour. […] Tube was inserted into 50 mL of PBS (pH 5.5) with both ends tightened. In order to provide the sink conditions, PBS quantifying to 0.5 mL was added. Formulated medium was heated up to 37 ± 0.5 °C and stirred continuously at speed of 200 rpm. At predefined intervals, a 5 mL sample was taken, and an equal volume of new medium was introduced to keep the final volume, or sink condition, throughout experiment. All test samples were analyzed in triplicate manner and results are expressed as mean ± SD (n = 3).
To elucidate the kinetics and mechanisms governing drug release, we employed regression analysis to fit the experimental drug release data to various mathematical models. This analysis yielded coefficient constants that shed light on the order of release and the underlying mechanisms involved. (See Supportive Information for further details).

[3] = system: HCT116 cells; experiment: Mitochondrial membrane potential estimation (JC-1 flow cytometry); assay type: cell-based; conditions: HCT-116, IC50 dose, 24 h
Protocol: After the incubation period, the medium was aspirated, and cells were harvested using trypsin EDTA. The harvested cells were collected in a 1.5 ml tube and subjected to a single wash with 500 μl of chilled PBS. Subsequently, the cell pellets were resuspended in 400 μl of JC1 staining buffer containing 2 μM JC-1 dye. The samples were then promptly acquired using a Flow Cytometer within a 1-h timeframe.

[4] = Pharmacokinetics after intravenous administration; assay type: in vivo, male Albino Wistar rats; conditions: rats, 15 mg/kg intravenously
Protocol: In accordance with the ethical approval (SPTM/2022/IAEC/18), nine male Albino Wistar rats weighing between 200 and 250 g were divided into three groups (n = 3) for proper conduct of pharmacokinetic experiments.
Blood samples (500 μL) were collected from the rats' tail veins into heparinized tubes and cold centrifuged at 13,500 rpm for 10 min at 4 °C to separate plasma from blood. Subsequently, 100 μL of the separated plasma was mixed with 200 μL of acetonitrile, vortexed for 3 min to extract proteins, and cold centrifuged again at 13,500 rpm for 5 min at 4 °C.
The supernatant was then diluted with methanol, passed through a membrane filter, and subjected to analysis using a High-Performance Liquid Chromatography (HPLC) system. Isocratic elution was performed with a mobile phase consisting of a 20 mM ammonium acetate buffer and acetonitrile in a 60:40 ratio, at a flow rate of 1.0 mL/min, utilizing a C18 column.

[5] = system: HT-29 cell line; set-up: method as in PMID 31149165; conditions: 1000 μg/mL, MTT assay; cited from earlier work
[6] = system: HCT116 cells; experiment: Cellular apoptosis (Annexin V FITC/PI flow cytometry); assay type: cell-based; conditions: HCT116, IC50 dose
Protocol: HCT116 cell lines were seeded, cultured and subjected up to IC-50 dose of compound. Subsequent to treatment, cells underwent two washes with cold PBS. Resuspended cells were placed in 1X binding buffer at a concentration of 1x10^6 cells/ml, and the cells were divided into distinct groups, namely Unstained cells, Control group, Annexin only, PI only, and Treatment. Following the division into labelled tubes, Annexin V FITC and PI were introduced to their respective tubes. After vortexing and an incubation period of 15 min at room temperature, 1X Binding buffer was added to each tube. Subsequently, the samples were analyzed by a Flow Cytometer within 1 h.

[7] = system: HCT116 cells; experiment: Wound healing (scratch) assay; assay type: cell-based; conditions: HCT-116, after 48 h, compared to control
Protocol: The following day, a scratch was made in the cell monolayer using a 200 μl tip, and the cells were subsequently treated with the specified concentration of the formulation. Photographs were taken at various time intervals ranging from 0 to 48 h.
The gap area resulting from the scratch was analyzed using Image J Software (NCBI) and was further presented in a graphical format to illustrate the changes over time.

[8] = system: erythrocytes; experiment: Haemolysis study; assay type: cell-based, male albino rats; conditions: rat erythrocytes, 100 μg/ml
Protocol: For […] control identification, Triton X-100 treatment was employed. A 4 mL blood sample was drawn from male albino rats (220g) using a 23-gauge needle from the lateral saphenous vein of the animal (SPTM/2022/IAEC/18). The blood sample was then centrifuged at 1344×g for 10 min, and the plasma layer was carefully removed. The erythrocytes were washed three times with saline water and incubated with a 100 μg/mL concentration of the samples at 37 °C. Samples of 200 μL each were collected at 0, 1–10 h and centrifuged at 1344×g for 10 min.
During the incubation, hemoglobin transformed into oxyhemoglobin. The obtained erythrocytes were observed under a microscope, and absorbance readings were taken at 570 nm for different concentrations of samples. All test samples were analyzed in triplicate, and the results are expressed as mean ± SD (n = 3). The percentage of hemolysis can be calculated using the following equation.

[9] = system: platelets; experiment: Platelet aggregation study; assay type: cell-based, rats; conditions: blood incubated 2 h, Leishman-stained slides
Protocol: A 1 mL blood sample was collected in heparinized tubes to prevent coagulation. […] The platelet aggregation was then examined both quantitatively and qualitatively. The qualitative analysis was conducted through microscopic examination of stained blood smears. Blood smears were prepared on clean glass slides after the 2-h incubation period. The slides were air-dried and subsequently stained with Leishman's stain for 5 min (Span Diagnostics, India). Following the staining, the slides were rinsed with distilled water, and a cover glass was placed on each slide for visualization under an optical microscope using an immersion objective. Images were captured using a digital camera.
As a control, whole blood incubated with an equivalent volume of PBS was used as the spontaneous control.

[10] = cited from earlier work
[11] = Tissue distribution; assay type: in vivo; conditions: male, albino Wistar, rat, intravenous, 15 mg/kg, rats, 8 h after administration
Protocol: To assess the distribution and concentration of a medication within the body following delivery, tissue distribution studies were conducted. Twelve male albino Wistar rats were divided into two groups, each comprising six rats, following the approved institutional protocol by the Committee for the Purpose of Control and Supervision of Experiments on Animals (CPCSEA) (Ref. No.: SPTM/2022/IAEC/18).
The medications evaluated for tissue distribution were ENZ and the formulation ENZ-PLGA-PSAR-TPGS NPs. After administering the doses for 8 h, the rats were euthanized. Tissue samples, including liver, heart, kidney, lungs, brain, colon, small intestine, stomach, and rectum muscle tissues, were collected. Brain endothelial cells were obtained using a stereotaxic apparatus (USA, Model No. 51500). The collected tissue samples were homogenized in a cold physiological solution and filtered after rinsing with saline water (0.9 percent sodium chloride).
Subsequently, the samples were analyzed using RP-UHPLC (Dionex Ultimate, 3000) to determine the distribution and concentration of the medications in various tissues.

[12] = system: castration-resistant prostate cancer (CRPC); conditions: patients with CRPC; cited from earlier work
[13] = male, Albino Wistar, rat, plasma, iv

pattern of release [2]: poor
MRT [4, 13]: 5.34 ± 2.43 h
Vd [4, 13]: 1.4 ± 0.00356 L
clearance [4, 13]: 1.51 mL/min
C [4]: 226.24 ± 31.2 ng/mL
platelet aggregation [9]: no aggregation
concentration at 8 h ([11]; brain, read-out: Concentration in Brain): 0.7 ± 0.1 ng/mL
concentration at 8 h ([11]; colon, read-out: Concentration in Colon): 0.95 ± 0.5 ng/mL
concentration at 8 h ([11]; heart, read-out: Concentration in Heart): 0.8 ± 1.1 ng/mL
concentration at 8 h ([11]; kidney, read-out: Concentration in Kidney): 0.57 ± 0.21 ng/mL
concentration at 8 h ([11]; liver, read-out: Concentration in Liver): 1.2 ± 0.13 ng/mL
concentration at 8 h ([11]; lungs, read-out: Concentration in Lungs): 0.5 ± 0.102 ng/mL
concentration at 8 h ([11]; rectum, read-out: Concentration in Rectum): 3.07 ± 0.4 ng/mL
concentration at 8 h ([11]; spleen, read-out: Concentration in Spleen): 0.3 ± 0.1 ng/mL
concentration at 8 h ([11]; stomach, read-out: Concentration in Stomach): 0.21 ± 0.12 ng/mL
SMILES: CNC(=O)c1ccc(N2C(=S)N(c3ccc(C#N)c(C(F)(F)F)c3)C(=O)C2(C)C)cc1F [ENZ, Enzalutamide]
cells in G1 phase [1]: 49.6%
cells in G2 (G2/M) phase [1]: 14.5%
High MMP cells [3]: 3.5%
live cells in MMP assay [3]: 52.7%
low MMP cells [3]: 41.7%
cell viability [5]: significant decrease
early apoptosis (lower right quadrant) [6]: 2.7%
late apoptosis (upper right quadrant) [6]: 10.1%
live cells (lower left quadrant) [6]: 72.6%
inhibition of wound area [7]: inhibited the wound area
lysis of RBCs (microscopy) [8]: no occurrence of eruption or lysis of the RBCs
pKa [10]: 4.16
extension of survival [12]: 4.8 months
